The results in this text go back to US7419780B2, “Methods and assays for screening protein targets” (The Trustees of Columbia University in the City of New York, priority 2000, dated 2008).

Holding throughout (type): cell-based, S. cerevisiae
Common to all, as to details: 1 uM small molecule, difference to activity without small molecule, average of two trials

Assay [1] deals with T1, LexA mDHFR / B42 rGR2 (UniProt P00375+P06536, C656G/F620S).
T1 construct: rat Glucocorticoid Receptor (aa 524-795) with point mutations; expressed in transfected cells; host or cells: S. cerevisiae FY250
T1 sequence (P00375 1-187): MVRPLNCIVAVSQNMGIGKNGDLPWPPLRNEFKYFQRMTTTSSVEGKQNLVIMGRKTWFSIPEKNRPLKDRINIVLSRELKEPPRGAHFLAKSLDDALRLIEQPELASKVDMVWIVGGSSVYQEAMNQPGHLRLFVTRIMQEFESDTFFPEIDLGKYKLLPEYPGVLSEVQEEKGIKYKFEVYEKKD
T1 sequence (P06536 524-795 F620S/C656G limits assumed): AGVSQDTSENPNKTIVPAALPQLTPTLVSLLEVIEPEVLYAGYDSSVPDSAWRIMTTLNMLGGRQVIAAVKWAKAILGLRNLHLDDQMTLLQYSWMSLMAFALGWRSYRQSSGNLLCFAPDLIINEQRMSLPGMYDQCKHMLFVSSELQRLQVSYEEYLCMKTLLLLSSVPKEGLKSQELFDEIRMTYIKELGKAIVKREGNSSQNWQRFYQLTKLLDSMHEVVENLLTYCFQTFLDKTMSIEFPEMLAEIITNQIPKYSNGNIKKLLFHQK
Kind of assay: β-galactosidase activity assay, strain V495Y. From the text:
(§1) Table III explains the components of each strain. Each strain was constructed from the parent yeast strain FY250 and also contains the pMW106 plasmid, which has the LacZ reporter gene that is turned on only in when the LexA DNA binding domain and the B42 activation are brought in tot he vicinity of each other. We use several different strains because we use DHFR from two different species, mDHFR is from murine, while eDHFR is from E. coli. We are asl oable to switch the small moleculebinding domains. For example, the strain containing LexA-eDHFR with B42-rGH2 is a different strain and behaves differently from the strain containing LexA-rGR2 with B42-eDHFR. We also put in short 6 amino acid linkers between the two domains of our protein chimeras and thus these are different strain as well.
(§2) The results in Table IV are averages of two separate trials. Each strain was examined with small molecules and without small molecules. The absolute activity is given as the β-galactisidase activity […]. The average β-galactosidse activity for a strain without small molecule (i.e. the negative control) was about 100 β-galactosidase units.

Assay [2] addresses T2, LexA rGR2 / B42 (GSG)2mDHFR (UniProt P00375+P06536, C656G/F620S).
T2 construct: expressed in transfected cells; host or cells: S. cerevisiae FY250 with pMW106 lacZ reporter
T2 sequence (P06536 524-795 F620S/C656G limits assumed): T1 sequence (P06536 524-795 F620S/C656G limits assumed)
T2 sequence (P00375 1-187): T1 sequence (P00375 1-187)
Kind of assay: β-galactosidase activity assay, strain V511Y.
Text: as §1, §2

Assay [3] deals with T3, LexA mDHFR / B42 gly6rGR2 (UniProt P00375+P06536, C656G/F620S).
T3 construct: rat Glucocorticoid Receptor (aa 524-795) with point mutations; expressed in transfected cells; host or cells: S. cerevisiae FY250
T3 sequence (P00375 1-187): T1 sequence (P00375 1-187)
T3 sequence (P06536 524-795 F620S/C656G limits assumed): T1 sequence (P06536 524-795 F620S/C656G limits assumed)
In words: β-galactosidase activity assay, strain V496Y.
Text: as §1, §2

Assay [4] addresses T4, LexA (GSG)2eDHFR / B42 rGR2 (UniProt P06536+P0ABQ4, C656G/F620S).
T4 construct: rat Glucocorticoid Receptor (aa 524-795) with point mutations; expressed in transfected cells; host or cells: S. cerevisiae FY250
T4 sequence (P0ABQ4 1-159): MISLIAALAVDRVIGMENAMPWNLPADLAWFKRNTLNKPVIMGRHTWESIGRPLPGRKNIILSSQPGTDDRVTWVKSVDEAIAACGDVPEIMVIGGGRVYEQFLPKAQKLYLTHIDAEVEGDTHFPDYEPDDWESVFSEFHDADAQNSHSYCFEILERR
T4 sequence (P06536 524-795 F620S/C656G limits assumed): T1 sequence (P06536 524-795 F620S/C656G limits assumed)
In words: β-galactosidase activity assay, strain V498Y.
Text: as §1, §2

For assay [5], the target named is T5, LexA (GSG)2rGR2 / B42 (GSG)2mDHFR (UniProt P00375+P06536, C656G/F620S).
T5 construct: rat Glucocorticoid Receptor (aa 524-795) with point mutations; expressed in transfected cells; host or cells: S. cerevisiae FY250
T5 sequence (P06536 524-795 F620S/C656G limits assumed): T1 sequence (P06536 524-795 F620S/C656G limits assumed)
T5 sequence (P00375 1-187): T1 sequence (P00375 1-187)
In words: β-galactosidase activity assay, strain V512Y.
Text: as §1, §2

Assay [6] addresses T6, LexA (GSG)2rGR2 / B42 eDHFR (UniProt P06536+P0ABQ4, C656G/F620S).
T6 construct: expressed in transfected cells; host or cells: S. cerevisiae FY250 with pMW106 lacZ reporter
T6 sequence (P06536 524-795 F620S/C656G limits assumed): T1 sequence (P06536 524-795 F620S/C656G limits assumed)
T6 sequence (P0ABQ4 1-159): T4 sequence (P0ABQ4 1-159)
Kind of assay: β-galactosidase activity assay, strain V506Y.
Text: as §1, §2

Assay [7] concerns the target T7, LexA rGR2 / B42 mDHFR (UniProt P00375+P06536, C656G/F620S).
T7 construct: rat Glucocorticoid Receptor (aa 524-795) with point mutations; expressed in transfected cells; host or cells: S. cerevisiae FY250
T7 sequence (P06536 524-795 F620S/C656G limits assumed): T1 sequence (P06536 524-795 F620S/C656G limits assumed)
T7 sequence (P00375 1-187): T1 sequence (P00375 1-187)
In words: β-galactosidase activity assay, strain V507Y.
Text: as §1, §2

The target of assay [8] is T8, LexA rGR2 / B42 eDHFR (UniProt P06536+P0ABQ4, C656G/F620S).
T8 construct: rat Glucocorticoid Receptor (aa 524-795) with point mutations; expressed in transfected cells; host or cells: S. cerevisiae FY250
T8 sequence (P06536 524-795 F620S/C656G limits assumed): T1 sequence (P06536 524-795 F620S/C656G limits assumed)
T8 sequence (P0ABQ4 1-159): T4 sequence (P0ABQ4 1-159)
Kind of assay: β-galactosidase activity assay, strain V505Y.
Text: as §1, §2

Assay [9] concerns the target T9, LexA (GSG)2mDHFR / B42 rGR2 (UniProt P00375+P06536, C656G/F620S).
T9 construct: rat Glucocorticoid Receptor (aa 524-795) with point mutations; expressed in transfected cells; host or cells: S. cerevisiae FY250
T9 sequence (P00375 1-187): T1 sequence (P00375 1-187)
T9 sequence (P06536 524-795 F620S/C656G limits assumed): T1 sequence (P06536 524-795 F620S/C656G limits assumed)
Kind of assay: β-galactosidase activity assay, strain V502Y.
Text: as §1, §2

The target in assay [10] is T10, LexA (GSG)2eDHFR / B42 gly6rGR2 (UniProt P06536+P0ABQ4, C656G/F620S).
T10 construct: rat Glucocorticoid Receptor (aa 524-795) with point mutations; expressed in transfected cells; host or cells: S. cerevisiae FY250
T10 sequence (P0ABQ4 1-159): T4 sequence (P0ABQ4 1-159)
T10 sequence (P06536 524-795 F620S/C656G limits assumed): T1 sequence (P06536 524-795 F620S/C656G limits assumed)
In words: β-galactosidase activity assay, strain V499Y.
Text: as §1, §2

With `C[C@@H]1C[C@H]2C3CCC4=CC(=O)C=C[C@]4(C)[C@@]3(F)[C@@H](O)C[C@]2(C)[C@@]1(O)C(=O)NCCSCCCCCCCCCCSCC[C@H](NC(=O)c1ccc(N(C)Cc2cnc3nc(N)nc(N)c3n2)cc1)C(=O)O` (stereo partly shown) [D10M], the B-gal activity was 513 β-galactosidase units in [1]; −60 β-galactosidase units in assay [2]; 740 β-galactosidase units in assay [3]; 2926 β-galactosidase units in assay [4]; 6 β-galactosidase units in assay [5]; 2561 β-galactosidase units in assay [6]. The B-gal activity is recorded as −14 β-galactosidase units in assay [7], 1160 β-galactosidase units in assay [8], 497 β-galactosidase units in assay [9] and 4013 β-galactosidase units in assay [10].
